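Interpolation was linear, between the two tested concentrations surrounding the appropriate level; five concentrations were tested over 48 hours in 96-well plates. The concentration for 50% growth inhibition is given as GI50.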 Active and inactive are the calls of the source. No stated cut-off is given here; in the data, active = GI50 up to about 1.1 µM and inactive = higher.
How the values were obtained:
Test in all cases: NCI-60 cell line screen, 48 h
[1] = tested on: 786-0
[2] = tested on: CAKI-1
[3] = tested on: EKVX
[4] = tested on: HCT-15
[5] = tested on: HOP-62
[6] = tested on: HT-29
[7] = tested on: K562
[8] = tested on: KM12
[9] = tested on: MOLT-4
[10] = tested on: Malme-3M
[11] = tested on: NCI-H226
[12] = tested on: NCI/ADR-RES
[13] = tested on: RPMI-8226
[14] = tested on: SF-539
[15] = tested on: SK-MEL-28
[16] = tested on: SN12C
[17] = tested on: SNB-19
[18] = tested on: U-251
[19] = tested on: UACC-257
[20] = tested on: UACC-62

Measured: GI50

N=C(Nc1nc(-c2ccccn2)cc2ccccc12)c1ccccn1
active: [1] 0.0317 µM | [2] < 0.0123 µM | [3] 0.0221 µM | [5] 0.0789 µM | [6] 0.01 µM | [7] 0.0108 µM | [8] 0.049 µM | [9] 0.01 µM | [10] 0.157 µM | [11] 0.106 µM | [12] < 0.0185 µM | [13] 0.00201 µM | [14] 0.097 µM | [15] 0.252 µM | [16] 0.0252 µM | [17] 0.834 µM | [18] 0.0295 µM | [19] < 0.0172 µM | [20] 0.0336 µM
0.0149 µM: [4]

Clc1ccc2oc(CCC3CCCCC3)nc2c1
inactive: [1] 28.2 µM | [2] 24.7 µM | [3] 26.7 µM | [5] 22.3 µM | [6] 23.5 µM | [7] 38.2 µM | [8] 26.4 µM | [9] 16.4 µM | [10] 39.5 µM | [11] 19.2 µM | [12] 30.3 µM | [13] 37.3 µM | [14] 32.1 µM | [15] 33.3 µM | [16] 21.9 µM | [17] 42.3 µM | [18] 19.3 µM | [19] 30.6 µM | [20] 60.4 µM
24.7 µM: [4]

CC(C)(C)c1cc(C(=O)/C=C/c2c(Cl)cccc2Cl)cc(C(C)(C)C)c1O
12.4 µM: [4]
inactive: [1] 13.1 µM | [2] 22.2 µM | [3] 21.9 µM | [5] 20 µM | [6] 10.2 µM | [7] 18.9 µM | [8] 13.1 µM | [9] 6.85 µM | [10] 18.6 µM | [11] 17.8 µM | [12] 20.1 µM | [13] 3.8 µM | [14] 16.1 µM | [15] 19.4 µM | [16] 21 µM | [17] 11.9 µM | [18] 11.9 µM | [19] 5.6 µM | [20] 12.8 µM

NC(=O)c1nc[nH]c1/N=N/SCC(N)C(=O)O (stereo not drawn)
active: [9] 0.962 µM
inactive: [1] 19.4 µM | [2] 4.21 µM | [3] > 75.7 µM | [5] 28.7 µM | [6] > 100 µM | [7] 2.01 µM | [8] 14.2 µM | [10] 5.9 µM | [11] > 44.8 µM | [12] 6.58 µM | [13] 6.24 µM | [14] 17.6 µM | [15] > 100 µM | [16] 6.73 µM | [17] > 100 µM | [18] > 80.7 µM | [19] 54.8 µM | [20] 6.31 µM
43.2 µM: [4]

COc1ccc2[nH]c3c(C)c4cnccc4c(C)c3c2c1
1.61 µM: [4]
active: [1] 0.424 µM | [6] 1.11 µM | [9] 0.571 µM
inactive: [2] 6.27 µM | [3] 1.87 µM | [5] 1.43 µM | [7] 2.4 µM | [8] 1.31 µM | [10] 1.45 µM | [11] 1.4 µM | [12] 1.22 µM | [13] 2.95 µM | [14] 1.88 µM | [15] 1.94 µM | [16] 2.24 µM | [17] > 10 µM | [18] 1.72 µM | [19] 4.07 µM | [20] > 10 µM

C=CC(=O)NCCC(=O)OCn1cc(F)c(=O)[nH]c1=O
active: [16] 0.838 µM
inactive: [1] 2.92 µM | [2] 3.2 µM | [3] 10.4 µM | [5] 4.98 µM | [6] 4.12 µM | [7] 9.66 µM | [8] 5.48 µM | [9] 6.01 µM | [10] 4.59 µM | [11] 13.3 µM | [12] 27 µM | [13] 1.75 µM | [14] 2.65 µM | [15] 32.2 µM | [17] 39.4 µM | [18] 18 µM | [19] 7.11 µM | [20] 4.08 µM
6.14 µM: [4]

C[C@@H]1Nc2cc(NC(=O)OCCF)nc(N)c2N=C1c1ccccc1
inactive: [2] > 100 µM | [11] 42.2 µM | [15] 88.7 µM | [20] 34.8 µM
active: [1] < 0.0001 µM | [3] < 0.0001 µM | [5] < 0.0001 µM | [6] < 0.0001 µM | [7] < 0.0001 µM | [8] < 0.0001 µM | [9] < 0.0001 µM | [10] 0.111 µM | [12] < 0.0001 µM | [13] < 0.0001 µM | [14] < 0.0001 µM | [16] < 0.0001 µM | [17] 0.0409 µM | [18] < 0.0001 µM | [19] < 0.01 µM
< 0.0001 µM: [4]

COc1nc2ncc([C@@H](OC(C)=O)[C@@H](COC(C)=O)OC(C)=O)nc2c(=O)n1C
inactive: [1] > 100 µM | [2] > 100 µM | [3] > 100 µM | [5] > 100 µM | [6] > 100 µM | [7] > 100 µM | [8] > 100 µM | [9] > 100 µM | [10] > 100 µM | [11] > 100 µM | [12] > 100 µM | [13] 96.8 µM | [14] > 100 µM | [15] > 100 µM | [16] > 100 µM | [17] > 100 µM | [18] > 100 µM | [19] > 100 µM | [20] > 100 µM
> 100 µM: [4]

NNC1=N/C(=C\c2ccccc2O)C(=O)N1
inactive: [1] 20.7 µM | [2] 60.3 µM | [3] 50.5 µM | [5] 48.5 µM | [6] 53.6 µM | [7] 28.1 µM | [8] 35.5 µM | [9] 21.5 µM | [10] 43.9 µM | [11] 47.5 µM | [12] 35.8 µM | [13] 24 µM | [14] 25.4 µM | [15] 60.8 µM | [16] 40.7 µM | [17] 73.3 µM | [18] 33.3 µM | [19] 49.2 µM | [20] 48.1 µM
6.31 µM: [4]

CC[C@@]1(O)C(=O)OCc2c1cc1n(c2=O)Cc2c-1nc1ccccc1c2/C=N\NC(=O)C(N)Cc1c[nH]c2ccccc12 (stereo partly drawn)
active: [1] 0.108 µM | [2] 0.0578 µM | [5] 0.0556 µM | [7] 0.239 µM | [9] < 0.01 µM | [11] 1.11 µM | [12] 0.809 µM | [13] 0.78 µM | [14] 0.101 µM | [16] 0.108 µM | [17] < 0.0198 µM | [18] 0.0502 µM | [20] 0.0528 µM
inactive: [3] 5.78 µM | [6] 3.74 µM | [8] 2.84 µM | [10] 1.76 µM | [15] 1.26 µM | [19] 1.96 µM

CCOP(=O)(O)C(Nc1ccc(/N=N/c2ccccc2)cc1)c1ccc(C(Nc2ccc(/N=N/c3ccccc3)cc2)P(=O)(O)OCC)cc1 (stereo not drawn)
19.7 µM: [4]
inactive: [1] 26.8 µM | [2] 44.6 µM | [3] 18.7 µM | [5] 18.5 µM | [6] 18.3 µM | [7] 19.6 µM | [8] 16.5 µM | [9] 20.3 µM | [10] 17.9 µM | [11] 40.3 µM | [12] 27.4 µM | [13] 23.7 µM | [14] 19.2 µM | [15] 19.2 µM | [16] 19.2 µM | [17] 21.5 µM | [18] 18.1 µM | [19] 26.4 µM | [20] 19.2 µM

CC(=O)Oc1cccc2c1C(=O)c1c(OC(C)=O)cc(C)cc1C2=O
40.6 µM: [4]
inactive: [1] 20.4 µM | [2] > 100 µM | [3] 24.4 µM | [5] 32.4 µM | [6] 39.6 µM | [7] 29 µM | [8] 39.5 µM | [9] 26.6 µM | [10] 17.1 µM | [11] > 100 µM | [12] 21.1 µM | [13] 12.6 µM | [14] 26.3 µM | [15] 27.9 µM | [16] 51.2 µM | [17] 30.3 µM | [18] 30.2 µM | [19] > 100 µM | [20] 32.7 µM

CCc1nc(N)nc(N)c1-c1ccc(Cl)c([N+]#N)c1
inactive: [1] 48.2 µM | [2] 58.3 µM | [3] > 100 µM | [5] 82 µM | [6] 33.3 µM | [7] 6.32 µM | [8] 38.1 µM | [9] 23.1 µM | [10] > 100 µM | [11] > 100 µM | [12] 49.8 µM | [14] 44.3 µM | [15] > 100 µM | [16] 50.6 µM | [17] > 100 µM | [18] 64.3 µM | [19] > 100 µM | [20] 41 µM
28.8 µM: [4]
active: [13] 0.564 µM

CC[C@@]1(O)C(=O)OCc2c1cc1n(c2=O)Cc2c-1nc1ccccc1c2CC[Si](C)(C)C [COSITECAN]
active: [1] < 0.01 µM | [2] < 0.01 µM | [3] 0.0671 µM | [5] < 0.01 µM | [6] < 0.01 µM | [7] 0.0101 µM | [8] 0.0367 µM | [9] < 0.01 µM | [10] < 0.01 µM | [11] < 0.01 µM | [12] < 0.01 µM | [13] < 0.01 µM | [14] < 0.01 µM | [16] < 0.01 µM | [17] < 0.01 µM | [18] < 0.01 µM | [19] < 0.0391 µM | [20] < 0.01 µM
0.0789 µM: [4]

Reference: ChEMBL document CHEMBL1201862, “PubChem BioAssay data set” (2004)
